Reference: PMC5218480 (PLoS ONE, 2017)

Test system: MV-4-11 cells
Test: Gene expression microarray analysis (Affymetrix PrimeView) and GSEA
Type: cell-based, human
Design: RFU PODN (11730768_x_at) / Fold change /veh PODN (11730768_x_at) / RFU LINC00158 (11744669_a_at) / Fold change /veh LINC00158 (11744669_a_at) / RFU DUSP10 (11751237_a_at) / Fold change /veh DUSP10 (11751237_a_at) / RFU ID3 (11757404_x_at) / Fold change /veh ID3 (11757404_x_at) / RFU PLEKHG5 (11737974_s_at) / Fold change /veh PLEKHG5 (11737974_s_at) / RFU LRRC4B (11730491_at) / Fold change /veh LRRC4B (11730491_at) / RFU GIMAP4 (11747438_a_at) / Fold change /veh GIMAP4 (11747438_a_at) / RFU KRT8 (11758183_x_at) / Fold change /veh KRT8 (11758183_x_at) / RFU CNN1 (11734310_a_at) / Fold change /veh CNN1 (11734310_a_at) / RFU VPS37D (11726825_at) / Fold change /veh VPS37D (11726825_at) / RFU C10orf10 (11716522_x_at) / Fold change /veh C10orf10 (11716522_x_at) / RFU KIR2DL2 /// KIR2DL4 /// KIR2DL5A /// KIR2DL5B /// KIR2DS1 /// KIR2DS2 /// KIR2DS3 /// KIR2DS4 /// KIR3DL3 /// KIR3DL3 /// KIR3DS1 (11738374_at) / Fold change /veh KIR2DL2 /// KIR2DL4 /// KIR2DL5A /// KIR2DL5B /// KIR2DS1 /// KIR2DS2 /// KIR2DS3 /// KIR2DS4 /// KIR3DL3 /// KIR3DL3 /// KIR3DS1 (11738374_at) / RFU C1QL1 (11718748_at) / Fold change /veh C1QL1 (11718748_at) / RFU TMPRSS4 (11747572_a_at) / Fold change /veh TMPRSS4 (11747572_a_at) / RFU HAMP (11756126_x_at) / Fold change /veh HAMP (11756126_x_at) / RFU RNFT2 (11725882_a_at) / Fold change /veh RNFT2 (11725882_a_at) / RFU NR4A2 (11747474_a_at) / Fold change /veh NR4A2 (11747474_a_at) / RFU ABCC12 (11746883_a_at) / Fold change /veh ABCC12 (11746883_a_at) / RFU TMEM136 (11760407_x_at) / Fold change /veh TMEM136 (11760407_x_at) / RFU CLDN22 /// WWC2 (11732394_at) / Fold change /veh CLDN22 /// WWC2 (11732394_at) / RFU HLA-DPB1 (11760878_x_at) / Fold change /veh HLA-DPB1 (11760878_x_at) / RFU SPINT1 (11716480_a_at) / Fold change /veh SPINT1 (11716480_a_at) / RFU GAP43 (11754022_s_at) / Fold change /veh GAP43 (11754022_s_at) / RFU A4GNT (11735810_at) / Fold change /veh A4GNT (11735810_at) / RFU PRB3 (11715151_x_at) / Fold change /veh PRB3 (11715151_x_at) / RFU TUBB4B (11761932_at) / Fold change /veh TUBB4B (11761932_at) / RFU CAPN14 (11732068_a_at) / Fold change /veh CAPN14 (11732068_a_at) / RFU TMCC2 (11721928_a_at) / Fold change /veh TMCC2 (11721928_a_at) / RFU IRGQ (11745062_a_at) / Fold change /veh IRGQ (11745062_a_at) / RFU FAM174B (11720279_a_at) / Fold change /veh FAM174B (11720279_a_at) / RFU TMPRSS4 (11748680_a_at) / Fold change /veh TMPRSS4 (11748680_a_at) / RFU FAM212B (11763350_a_at) / Fold change /veh FAM212B (11763350_a_at) / RFU PLEKHG5 (11743358_a_at) / Fold change /veh PLEKHG5 (11743358_a_at) / RFU ZSCAN30 (11745921_a_at) / Fold change /veh ZSCAN30 (11745921_a_at) / RFU CMKLR1 (11741424_a_at) / Fold change /veh CMKLR1 (11741424_a_at) / RFU LOC101060620 /// MAPK8IP1 (11723275_at) / Fold change /veh LOC101060620 /// MAPK8IP1 (11723275_at) / RFU SPTSSB (11747773_x_at) / Fold change /veh SPTSSB (11747773_x_at) / RFU PRSS12 (11739890_at) / Fold change /veh PRSS12 (11739890_at) / RFU BIN1 (11741810_x_at) / Fold change /veh BIN1 (11741810_x_at) / RFU WNT11 (11732464_a_at) / Fold change /veh WNT11 (11732464_a_at) / RFU C10orf10 (11716521_a_at) / Fold change /veh C10orf10 (11716521_a_at) / RFU C5orf56 (11738089_at) / Fold change /veh C5orf56 (11738089_at) / RFU CYB561 (11721691_x_at) / Fold change /veh CYB561 (11721691_x_at) / RFU ANKRD19P (11752326_a_at) / Fold change /veh ANKRD19P (11752326_a_at) / RFU OR2T12 /// OR2T33 /// OR2T8 (11738714_s_at) / Fold change /veh OR2T12 /// OR2T33 /// OR2T8 (11738714_s_at) / RFU VCAN (11748164_a_at) / Fold change /veh VCAN (11748164_a_at) / RFU JSRP1 (11732532_at) / Fold change /veh JSRP1 (11732532_at) / RFU KRTAP10-11 (11738290_x_at) / Fold change /veh KRTAP10-11 (11738290_x_at) / RFU MYO3A (11730013_a_at) / Fold change /veh MYO3A (11730013_a_at) / RFU EBF3 (11725865_a_at) / Fold change /veh EBF3 (11725865_a_at) / RFU CAMK2N1 (11719241_x_at) / Fold change /veh CAMK2N1 (11719241_x_at) / RFU C5orf56 (11738088_a_at) / Fold change /veh C5orf56 (11738088_a_at) / RFU OLFML3 (11715873_a_at) / Fold change /veh OLFML3 (11715873_a_at) / RFU LOC100653217 /// NTM (11731650_a_at) / Fold change /veh LOC100653217 /// NTM (11731650_a_at) / RFU MAPK11 (11762145_a_at) / Fold change /veh MAPK11 (11762145_a_at) / RFU FIZ1 (11724087_x_at) / Fold change /veh FIZ1 (11724087_x_at) / RFU OASL (11726364_x_at) / Fold change /veh OASL (11726364_x_at) / RFU SOX15 (11748057_x_at) / Fold change /veh SOX15 (11748057_x_at) / RFU CD79A (11719716_a_at) / Fold change /veh CD79A (11719716_a_at) / RFU HIST1H1D (11736915_at) / Fold change /veh HIST1H1D (11736915_at) / RFU CASKIN2 (11723855_a_at) / Fold change /veh CASKIN2 (11723855_a_at) / RFU LOC730098 (11760151_x_at) / Fold change /veh LOC730098 (11760151_x_at) / RFU OR4N2 (11742367_at) / Fold change /veh OR4N2 (11742367_at) / RFU PRRT2 (11749266_a_at) / Fold change /veh PRRT2 (11749266_a_at) / RFU SNX32 (11753110_a_at) / Fold change /veh SNX32 (11753110_a_at) / RFU CDHR5 (11726645_a_at) / Fold change /veh CDHR5 (11726645_a_at) / RFU RCAN1 (11760418_a_at) / Fold change /veh RCAN1 (11760418_a_at) / RFU FAM167A (11723789_a_at) / Fold change /veh FAM167A (11723789_a_at) / RFU FAM26E (11764081_at) / Fold change /veh FAM26E (11764081_at) / RFU ISYNA1 (11749810_s_at) / Fold change /veh ISYNA1 (11749810_s_at) / RFU ACY1 (11761880_at) / Fold change /veh ACY1 (11761880_at) / RFU 11764098_at / Fold change /veh 11764098_at / RFU SAMD14 (11745864_x_at) / Fold change /veh SAMD14 (11745864_x_at) / RFU NPB (11741838_a_at) / Fold change /veh NPB (11741838_a_at) / RFU TMPRSS6 (11731388_a_at) / Fold change /veh TMPRSS6 (11731388_a_at) / RFU KRTAP10-2 (11738614_at) / Fold change /veh KRTAP10-2 (11738614_at) / RFU ARHGAP8 /// PRR5-ARHGAP8 (11727945_x_at) / Fold change /veh ARHGAP8 /// PRR5-ARHGAP8 (11727945_x_at) / RFU KRTAP5-7 /// NADSYN1 (11734609_at) / Fold change /veh KRTAP5-7 /// NADSYN1 (11734609_at) / RFU RASL12 (11751679_a_at) / Fold change /veh RASL12 (11751679_a_at) / RFU CDKN2B (11736163_a_at) / Fold change /veh CDKN2B (11736163_a_at) / RFU PRF1 (11729649_at) / Fold change /veh PRF1 (11729649_at) / RFU, ZNF638 /// ZNF638-IT1 / Fold change vs veh, ZNF638 /// ZNF638-IT1 / RFU, PANK3 / Fold change vs veh, PANK3 / RFU, SH3YL1 / Fold change vs veh, SH3YL1 / RFU, ZEB2 / Fold change vs veh, ZEB2 / RFU, NRIP1 / Fold change vs veh, NRIP1 / RFU, PTTG1IP / Fold change vs veh, PTTG1IP / RFU, CAPN2 / Fold change vs veh, CAPN2 / RFU, MED14 / Fold change vs veh, MED14 / RFU, SNORA58 / Fold change vs veh, SNORA58 / RFU, C1orf63 / Fold change vs veh, C1orf63 / RFU, LRRFIP1 / Fold change vs veh, LRRFIP1 / RFU, NDUFAF7 / Fold change vs veh, NDUFAF7 / RFU, SLC12A2 / Fold change vs veh, SLC12A2 / RFU, IBTK / Fold change vs veh, IBTK / RFU, ESF1 / Fold change vs veh, ESF1 / Fold change vs veh, TMEM50B / RFU, TAOK1 / Fold change vs veh, TAOK1 / RFU, ACBD3 / Fold change vs veh, ACBD3 / RFU, TMA16 / Fold change vs veh, TMA16 / RFU, RWDD3 / Fold change vs veh, RWDD3 / RFU, BCAT1 / Fold change vs veh, BCAT1 / RFU, EDEM3 / Fold change vs veh, EDEM3 / RFU, TMEM33 / Fold change vs veh, TMEM33 / RFU, WDR75 / Fold change vs veh, WDR75 / RFU, AHCTF1 / Fold change vs veh, AHCTF1 / RFU, TFRC / Fold change vs veh, TFRC / RFU, ZDHHC17 / Fold change vs veh, ZDHHC17 / RFU, NOM1 / Fold change vs veh, NOM1 / RFU, ARL8B / Fold change vs veh, ARL8B / RFU, ZBTB11 / Fold change vs veh, ZBTB11 / RFU, TAMM41 / Fold change vs veh, TAMM41 / RFU, KIAA1704 /// LOC100996395 / Fold change vs veh, KIAA1704 /// LOC100996395 / RFU, ING1 / Fold change vs veh, ING1 / RFU, TRMT61B / Fold change vs veh, TRMT61B / RFU, FUBP3 / Fold change vs veh, FUBP3 / RFU, TP53 / Fold change vs veh, TP53 / RFU, TNKS2 / Fold change vs veh, TNKS2 / RFU, ZFP14 / Fold change vs veh, ZFP14 / RFU, ACTR2 / Fold change vs veh, ACTR2 / RFU, PPP3R1 / Fold change vs veh, PPP3R1 / RFU, PIK3R1 / Fold change vs veh, PIK3R1 / RFU, HNRNPA1 / Fold change vs veh, HNRNPA1 / RFU, RNF170 / Fold change vs veh, RNF170 / RFU, ZNF28 / Fold change vs veh, ZNF28 / RFU, RNGTT / Fold change vs veh, RNGTT / RFU, OGT / Fold change vs veh, OGT / RFU, BRD1 / Fold change vs veh, BRD1 / RFU, MARS / Fold change vs veh, MARS / RFU, ZNF655 / Fold change vs veh, ZNF655 / RFU, FAHD1 / Fold change vs veh, FAHD1 / RFU, BDP1 / Fold change vs veh, BDP1 / RFU, LRRCC1 / Fold change vs veh, LRRCC1 / RFU, ARID1A / Fold change vs veh, ARID1A / RFU, ZNF146 / Fold change vs veh, ZNF146 / RFU, ZNF330 / Fold change vs veh, ZNF330 / RFU, GPN3 / Fold change vs veh, GPN3 / RFU, C9orf123 / Fold change vs veh, C9orf123 / RFU, N4BP2L2 / Fold change vs veh, N4BP2L2 / RFU, ARFIP1 / Fold change vs veh, ARFIP1 / RFU, FAM179B / Fold change vs veh, FAM179B / RFU, BCL10 / Fold change vs veh, BCL10 / RFU, UHRF1BP1L / Fold change vs veh, UHRF1BP1L / RFU, BET1 / Fold change vs veh, BET1 / RFU, CNOT2 / Fold change vs veh, CNOT2 / RFU, ZNF268 / Fold change vs veh, ZNF268 / Fold change vs veh, ZNF507 / RFU, DGCR2 / Fold change vs veh, DGCR2 / RFU, WDSUB1 / Fold change vs veh, WDSUB1 / Fold change vs veh, HSP90B1 /// MIR3652 / RFU, ADSS / Fold change vs veh, ADSS / RFU, GK / Fold change vs veh, GK / RFU, ZNF148 / Fold change vs veh, ZNF148 / RFU, TAF9 / Fold change vs veh, TAF9 / RFU, SLC1A5 / Fold change vs veh, SLC1A5 / RFU, SLMO2 / Fold change vs veh, SLMO2 / RFU, ABCC4 / Fold change vs veh, ABCC4 / RFU, LOC101060439 /// RAP1B / Fold change vs veh, LOC101060439 /// RAP1B / RFU, RFX7 / Fold change vs veh, RFX7 / RFU, GTPBP10 / Fold change vs veh, GTPBP10 / RFU, CNEP1R1 / Fold change vs veh, CNEP1R1 / RFU, BIVM-ERCC5 /// ERCC5 / Fold change vs veh, BIVM-ERCC5 /// ERCC5 / RFU, ILF3 / Fold change vs veh, ILF3 / RFU 11762660_at / Fold change /veh 11762660_at / RFU VCAN (11757783_s_at) / Fold change /veh VCAN (11757783_s_at) / RFU DDX43 (11728927_at) / Fold change /veh DDX43 (11728927_at) / RFU KRT8 (11758188_x_at) / Fold change /veh KRT8 (11758188_x_at) / RFU NKD1 (11759106_at) / Fold change /veh NKD1 (11759106_at) / RFU SRD5A1 (11742802_a_at) / Fold change /veh SRD5A1 (11742802_a_at) / RFU TPSAB1 /// TPSB2 (11721975_s_at) / Fold change /veh TPSAB1 /// TPSB2 (11721975_s_at) / RFU GSTM3 (11746129_a_at) / Fold change /veh GSTM3 (11746129_a_at) / RFU IL23R (11737362_x_at) / Fold change /veh IL23R (11737362_x_at) / RFU TMEM51 (11727254_a_at) / Fold change /veh TMEM51 (11727254_a_at) / RFU PIWIL2 (11732686_x_at) / Fold change /veh PIWIL2 (11732686_x_at) / RFU ORM1 (11744905_x_at) / Fold change /veh ORM1 (11744905_x_at) / RFU CCDC152 (11743942_at) / Fold change /veh CCDC152 (11743942_at) / RFU ECM1 (11717891_a_at) / Fold change /veh ECM1 (11717891_a_at) / RFU IL23R (11748794_a_at) / Fold change /veh IL23R (11748794_a_at) / RFU TNFAIP8L3 (11732012_x_at) / Fold change /veh TNFAIP8L3 (11732012_x_at) / RFU MBOAT4 (11741988_at) / Fold change /veh MBOAT4 (11741988_at) / RFU 11764193_at / Fold change /veh 11764193_at / RFU TMEM53 (11763286_at) / Fold change /veh TMEM53 (11763286_at) / RFU MAGEB2 (11727129_at) / Fold change /veh MAGEB2 (11727129_at) / RFU TMEM200A (11744735_a_at) / Fold change /veh TMEM200A (11744735_a_at) / RFU CCDC152 (11751479_a_at) / Fold change /veh CCDC152 (11751479_a_at) / RFU FAM211A (11726209_a_at) / Fold change /veh FAM211A (11726209_a_at) / RFU RGS16 (11746705_a_at) / Fold change /veh RGS16 (11746705_a_at) / RFU VCAN (11755009_s_at) / Fold change /veh VCAN (11755009_s_at) / RFU RHOB (11743442_s_at) / Fold change /veh RHOB (11743442_s_at) / RFU RGS16 (11720943_a_at) / Fold change /veh RGS16 (11720943_a_at) / RFU RGS16 (11720944_at) / Fold change /veh RGS16 (11720944_at) / RFU, VPS4B / Fold change vs veh, VPS4B / RFU, CREB1 / Fold change vs veh, CREB1 / RFU, DNAJC13 / Fold change vs veh, DNAJC13 / RFU, GNAQ / Fold change vs veh, GNAQ / RFU, CDK5R1 / Fold change vs veh, CDK5R1 / RFU, ZRANB3 / Fold change vs veh, ZRANB3 / RFU, CUL4A / Fold change vs veh, CUL4A / RFU, CCNY / Fold change vs veh, CCNY / RFU, UFL1 / Fold change vs veh, UFL1 / RFU, COG3 / Fold change vs veh, COG3 / RFU, DIAPH2 / Fold change vs veh, DIAPH2 / RFU, SKA2 / Fold change vs veh, SKA2 / RFU, AFF3 / Fold change vs veh, AFF3 / RFU, LMF1 / Fold change vs veh, LMF1 / RFU, IPO11 / Fold change vs veh, IPO11 / RFU, DFFB / Fold change vs veh, DFFB / RFU, FOXP1 / Fold change vs veh, FOXP1 / RFU, CARD8 / Fold change vs veh, CARD8 / RFU, STRN3 / Fold change vs veh, STRN3 / RFU, ADK / Fold change vs veh, ADK / RFU, RASSF2 / Fold change vs veh, RASSF2 / RFU, WIPF1 / Fold change vs veh, WIPF1 / RFU, LARP1B / Fold change vs veh, LARP1B / RFU, RASA1 / Fold change vs veh, RASA1 / RFU, RB1 / Fold change vs veh, RB1 / RFU, PPFIA1 / Fold change vs veh, PPFIA1 / RFU, MAT2A / Fold change vs veh, MAT2A / RFU, CCT5 / Fold change vs veh, CCT5 / RFU, WDR92 / Fold change vs veh, WDR92 / RFU, CUX1 / Fold change vs veh, CUX1 / RFU, TTC7A / Fold change vs veh, TTC7A / RFU, TMEM135 / Fold change vs veh, TMEM135 / RFU, DEPTOR / Fold change vs veh, DEPTOR / RFU, CPM / Fold change vs veh, CPM / RFU, DNAJB6 / Fold change vs veh, DNAJB6 / RFU, CACNA2D3 / Fold change vs veh, CACNA2D3 / RFU, DTX4 / Fold change vs veh, DTX4 / RFU, TFCP2 / Fold change vs veh, TFCP2 / RFU, GMCL1 /// GMCL1P1 / Fold change vs veh, GMCL1 /// GMCL1P1 / RFU, AEBP2 / Fold change vs veh, AEBP2 / RFU, SNHG1 /// SNORD22 /// SNORD25 /// SNORD26 /// SNORD27 /// SNORD28 /// SNORD29 /// SNORD31 / Fold change vs veh, SNHG1 /// SNORD22 /// SNORD25 /// SNORD26 /// SNORD27 /// SNORD28 /// SNORD29 /// SNORD31 / Fold change (Aza/veh), C12orf56 (ProbeSet 11735607_a_at) / Fold change (ACY-1035/veh), C12orf56 (ProbeSet 11735607_a_at) / Fold change (Aza/veh), FGFR1OP (ProbeSet 11751329_s_at) / Fold change (ACY-1035/veh), FGFR1OP (ProbeSet 11751329_s_at) / Fold change (Aza/veh), VPS36 (ProbeSet 11739960_a_at) / Fold change (ACY-1035/veh), VPS36 (ProbeSet 11739960_a_at) / RFU SYPL1 (11715823_x_at) / Fold change /veh SYPL1 (11715823_x_at) / RFU IGFBP7 (11715501_s_at) / Fold change /veh IGFBP7 (11715501_s_at) / RFU REEP3 (11722064_at) / Fold change /veh REEP3 (11722064_at) / RFU IGLL1 (11728026_x_at) / Fold change /veh IGLL1 (11728026_x_at): dose or concentration left out as unconfirmed
Conditions: ProbeSet 11757268_x_at; LIST B

Q: For `Nc1ccc(-c2cccs2)cc1NC(=O)c1ccc2c(c1)cc(C1CC1)n2CCN1CCOCC1` [ACY-1035], which “Fold change vs veh, HNRNPA1” value is on record?
A: 0.97
